{
  "source": "the OPERA property sets (Mansouri et al. 2018)",
  "data": [
    {"values": [
      {"smiles": "COCCn1ccnc1[N+](=O)[O-]", "logP": 0.12},
      {"smiles": "CN(Cc1ccccc1)N=Nc1ccc(C#N)cc1", "logP": 3.82},
      {"smiles": "O=[N+]([O-])c1nccn1C1OC(CO)C(O)C(O)C1O", "note": "(stereo not drawn)", "logP": -1.4},
      {"smiles": "CCOC(=O)C(=Cc1cccc(Cl)c1)C(=O)OCC", "logP": 3.49},
      {"smiles": "Cc1cccc2c([N+](=O)[O-])cc[n+]([O-])c12", "logP": 1.59},
      {"smiles": "CN1C(=O)CN=C(c2ccccc2F)c2cc(N)ccc21", "logP": 1.3},
      {"smiles": "COC(=O)C(C#N)=NNc1c(Cl)cc(C(F)(F)F)cc1Cl", "logP": 4.36},
      {"smiles": "CC(=O)N=C1SC(=Cc2ccc([N+](=O)[O-])o2)C(=O)N1C", "logP": 1.21},
      {"smiles": "COc1ccc(CCCC(=O)O)cc1", "logP": 2.33},
      {"smiles": "COc1cc(OC)c(OC)cc1CC(C)N", "note": "(stereo not drawn)", "logP": 1.74},
      {"smiles": "O=S1(=O)N=CNc2ccc(Cl)cc21", "logP": 1.07},
      {"smiles": "Cc1cc(C(=O)O)no1", "logP": 0.68},
      {"smiles": "OC1C(Cl)C(Cl)C(Cl)C(Cl)C1Cl", "note": "(stereo not drawn)", "logP": 2.54},
      {"smiles": "CCCCO[N+](=O)[O-]", "logP": 2.15},
      {"smiles": "CCCCN(SN(C)C(=O)ON=C(C)SC)C(C)=O", "logP": 2.4},
      {"smiles": "Nc1ncc(Cc2cc(Cl)c(Cl)cc2Cl)c(N)n1", "logP": 3.79},
      {"smiles": "COC(=O)C1CCCC(NC(=O)N(CCCl)N=O)C1", "note": "(stereo not drawn)", "logP": 1.89},
      {"smiles": "CC(=O)C(C#N)=NNc1cccc(Cl)c1", "logP": 3.9},
      {"smiles": "CCCCCCCCCCCCCC[n+]1cc(C)cc(C)c1.[I-]", "logP": 2.9},
      {"smiles": "CCCCCCCC[n+]1ccccc1C.[I-]", "logP": -0.77},
      {"smiles": "Cc1cc(=O)[nH]n1-c1ccncn1", "logP": 1.4},
      {"smiles": "CC(C)Nc1ccccc1C(N)=O", "logP": 2.07},
      {"smiles": "c1ccc(Nc2ccccn2)cc1", "logP": 2.75},
      {"smiles": "FC1C(Cl)C(Cl)C(Cl)C(Cl)C1Br", "note": "(stereo not drawn)", "logP": 3.28},
      {"smiles": "CS(=O)(=O)NN=Cc1ccccc1", "logP": 1.2},
      {"smiles": "CSC(C)=NOC(=O)N(C)SN(C)C(=O)C(C)C", "logP": 2.2},
      {"smiles": "COCN1C(=O)CN=C(c2ccccc2F)c2cc(N)ccc21", "logP": 1.31},
      {"smiles": "O=S1(=O)NC(C2CCC2)=Nc2ccc(Cl)cc21", "logP": 2.24},
      {"smiles": "C#CC(C=C)(CC)OC(N)=O", "note": "(stereo not drawn)", "logP": 1.09},
      {"smiles": "CCOP(=S)(OCC)Oc1ccc(SC)cc1Cl", "logP": 4.4},
      {"smiles": "Nc1cccc2nccnc12", "logP": 1.29},
      {"smiles": "COc1cc(C)nc2ccccc12", "logP": 2.81},
      {"smiles": "Cc1ncc([N+](=O)[O-])n1CCCS(C)(=O)=O", "logP": -1},
      {"smiles": "Cc1cccc(NC(=O)CN2CCCCC2)c1", "logP": 2.97},
      {"smiles": "CCc1cccc(CC)c1NC1=NCCN1", "logP": 2.48},
      {"smiles": "O=C1CN=C(c2c(F)cccc2F)c2ccc(Cl)cc2N1", "logP": 2.88},
      {"smiles": "O=C(c1ccncc1)c1ccc(O)cc1", "logP": 1.37},
      {"smiles": "COc1cc(Cc2cnc(N)nc2N)ccc1Nc1ccccc1", "logP": 3.42},
      {"smiles": "CN(N=O)C(=O)N(C)c1ccccc1", "logP": 1.58},
      {"smiles": "COCN1C(=O)C(O)N=C(c2ccccc2)c2cc(N)ccc21", "note": "(stereo not drawn)", "logP": 0.75},
      {"smiles": "O=C(Cn1ccnc1[N+](=O)[O-])N(CO)CO", "logP": -1.59},
      {"smiles": "CC(=O)N(C)SN(C)C(=O)Oc1cccc2c1OC(C)(C)C2", "logP": 2.7},
      {"smiles": "OCCCn1nnc2ccccc21", "logP": 0.91},
      {"smiles": "CC(C)n1nnc2ccccc21", "logP": 1.98},
      {"smiles": "CNC(=O)O/N=C/C(C)(C)S(C)(=O)=O", "logP": -0.57},
      {"smiles": "CC1=Nc2cc([N+](=O)[O-])c(Cl)cc2S(=O)(=O)N1", "logP": 1.42},
      {"smiles": "CCSc1c(OC)cc(Cc2cnc(N)nc2N)cc1OC", "logP": 1.79},
      {"smiles": "Cc1ccc(C(=N)c2ccc(C)cc2)cc1", "logP": 3.71},
      {"smiles": "Clc1ccc(-c2ccc(Cl)c(Cl)c2Cl)c(Cl)c1", "logP": 6.61},
      {"smiles": "Nc1nc(N)nc(-c2cc(Br)ccc2Br)n1", "logP": 2.09},
      {"smiles": "CCCC(C)n1nnc2ccccc21", "note": "(stereo not drawn)", "logP": 2.95},
      {"smiles": "CON(C)C(=O)Nc1cccc(F)c1", "logP": 1.68},
      {"smiles": "O=C1NC(=O)C(=Cc2ccc([N+](=O)[O-])o2)S1", "logP": 0.63}
    ]}
  ]
}
